Results from patent US10806737B2, “Compounds and methods for the targeted degradation of fetal liver kinase polypeptides” (Arvinas Operations, Inc., priority 2016, dated 2020).
Read-outs that look alike come from different tables or passages of the source.

Key:
[1] = target: T1, FLT-3 (Homo sapiens, UniProt P36888, INS600HVDFREYEYD); assay: Cellular assay of target protein degradation (MV-4-11 cells, westernblot); type: cell-based; settings: Table 3; FLT-3 degradation, result in words
T1 construct: probed with antibodies specific for FLT-3 and GAPDH; endogenous in cells; host or cells: MV-4-11 cells
T1 sequence (P36888 with tags, fused parts or gaps INS600HVDFREYEYD): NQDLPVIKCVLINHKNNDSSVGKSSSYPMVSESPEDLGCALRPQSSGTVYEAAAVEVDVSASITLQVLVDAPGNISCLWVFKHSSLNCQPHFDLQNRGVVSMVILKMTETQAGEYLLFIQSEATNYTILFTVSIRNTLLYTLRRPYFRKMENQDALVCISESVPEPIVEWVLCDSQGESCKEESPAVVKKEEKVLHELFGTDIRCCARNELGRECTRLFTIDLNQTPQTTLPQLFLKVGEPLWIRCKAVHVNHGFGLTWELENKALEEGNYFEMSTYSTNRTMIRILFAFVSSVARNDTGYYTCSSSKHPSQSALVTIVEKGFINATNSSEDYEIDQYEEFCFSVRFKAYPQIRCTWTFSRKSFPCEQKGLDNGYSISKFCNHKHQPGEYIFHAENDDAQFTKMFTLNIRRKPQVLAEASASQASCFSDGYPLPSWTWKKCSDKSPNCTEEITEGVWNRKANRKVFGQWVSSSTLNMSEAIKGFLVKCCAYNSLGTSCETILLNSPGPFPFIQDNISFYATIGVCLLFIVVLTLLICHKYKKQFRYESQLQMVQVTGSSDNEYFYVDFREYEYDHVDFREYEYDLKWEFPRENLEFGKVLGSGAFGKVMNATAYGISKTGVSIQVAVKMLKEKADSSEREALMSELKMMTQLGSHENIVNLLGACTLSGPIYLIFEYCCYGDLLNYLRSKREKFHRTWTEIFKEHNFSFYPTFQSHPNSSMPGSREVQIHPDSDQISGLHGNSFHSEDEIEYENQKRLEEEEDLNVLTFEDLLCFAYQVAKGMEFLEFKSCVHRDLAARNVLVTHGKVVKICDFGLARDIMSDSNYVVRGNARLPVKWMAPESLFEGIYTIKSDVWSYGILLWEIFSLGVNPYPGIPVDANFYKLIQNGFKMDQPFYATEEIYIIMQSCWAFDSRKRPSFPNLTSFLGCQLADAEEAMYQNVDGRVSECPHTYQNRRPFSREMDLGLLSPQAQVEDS
Description: Protocol for the Cellular Assay of Target Protein Degradation (MV-4-11 Cells, Westernblot).
MV-4-11 cells (approximately 1 million cells per well) were treated with the indicated concentrations ([…]) of compound for 24 hours. The cells were spun down and washed twice with PBS. The cells were suspended by lysis buffer (50 mM Tris (pH7.4), 150 mM NaCl, 1 mM EDTA, 0.5% NP-40, phosphatase and protease inhibitors) and incubated for an additional 30 min at 4° C. for complete lysis. After another centrifugation (13000 rpm for 15 minutes), the supernatants were kept as cell lysates. The protein concentration of the cell lysates was determined via the bicinchoninic acid (BCA) method. Equal amounts (10-20 μg) of protein samples were subjected to 8-15% SDS-PAGE. The proteins were transferred to nitrocellulose membrane and probed with antibodies specific for FLT-3 and GAPDH.

[2] = tested on: MV4-11 cells; assay: Cell proliferation assay (CellTiter 96 AQueous One Solution); type: cell-based; settings: Homo sapiens
Description: Protocol for the Cell Proliferation Assays (MV-4-11 Cells).
MV-4-11 or Molm 14 cells were seeded in 96-well plates at a density of 1×10^4 cells/well and treated with various concentrations of the test compounds for 72 hours. The highest concentration was 500 nM and was serially diluted 5-fold seven times. After incubation, 20 μl/well of CellTiter 96® AQueous One Solution Reagent (Promega®) was added and the plate was incubated an additional 3 hours. The absorbance was measured at 490 nm, and cell viability was calculated by comparing to the absorbance of the vehicle-treated control group using GraphPad Prism 7.
Cell viability/survival is illustrated in FIGS. 4A, 4B and 4C, as determined by a cell proliferation assay. […] DC50, IC50, MH+, and NMR data for exemplary PROTAC-34 through PROTAC-38 and PROTAC-34-Epimer (structure shown below) is shown in Table 3 below.

Cc1ncsc1-c1ccc(CNC(=O)[C@@H]2C[C@@H](O)CN2C(=O)[C@@H](NC(=O)CCOCCOCCOc2ccc3c(c2)sc2nc(-c4ccc(NC(=O)Nc5cc(C(C)(C)C)on5)cc4)cn23)C(C)(C)C)cc1 [PROTAC-34-Epimer]
Degradation observed [1]: No degradation | IC50 ([2]; MV4-11, Table 3, MV4-11, read-out: IC50 [cell line]): 2.27 nM

Cc1ncsc1-c1ccc(CNC(=O)[C@@H]2C[C@@H](O)CN2C(=O)[C@@H](NC(=O)CCOCCCCOc2ccc3c(c2)sc2nc(-c4ccc(NC(=O)Nc5cc(C(C)(C)C)on5)cc4)cn23)C(C)(C)C)cc1 [PROTAC-37]
Degradation observed [1]: No degradation

CC(C)(C)c1cc(NC(=O)Nc2ccc(-c3cn4c(n3)sc3cc(OCCN5CCOCC5)ccc34)cc2)no1 [Quizartinib]
IC50 ([2]; MV4-11, 72 h, Table 1, MV4-11 cells, 72 hours, cell viability, read-out: IC50 (nM) MV4-11): 2.34 nM | IC50 ([2]; MV4-11, 72 h, Table 2, MV4-11 cells, 72 hours, cell viability, read-out: IC50 (nM) MV4-11): 1.75 nM
